What was measured:
Format in all cases: cell-based
[1] = tested on: S. aureus ATCC 25923; test: Antibiotic susceptibility, reference microorganism
[2] = tested on: S. aureus ATCC 33592; test: Antibiotic Susceptibility of the Test Microorganisms
[3] = tested on: P. aeruginosa ATCC 27853; test: Antibiotic susceptibility, reference microorganism
[4] = tested on: E. cloacae ATCC BAA-2468; test: Antibiotic Susceptibility of the Test Microorganisms
[5] = tested on: A. baumannii ATCC BAA-1605; test: as above
[6] = tested on: E. coli ATCC 25922; test: Antibiotic susceptibility, reference microorganism
[7] = tested on: E. faecalis ATCC 51575; test: Antibiotic Susceptibility of the Test Microorganisms
[8] = susceptibility ≥21 mm, resistance ≤17 mm (CLSI M100)

SMILES: Cc1onc(-c2ccccc2)c1C(=O)N[C@@H]1C(=O)N2[C@@H]1SC(C)(C)[C@@H]2C(=O)O [Oxocillin]
- Reference Microorganism Diameter [1]: 51.9 mm
- Test Microorganism Demonstrates Resistance? [2]: Yes
- Test Microorganism Diameter ([2]; susceptibility ≥13 mm, resistance ≤10 mm (CLSI M100)): 9.2 mm

SMILES: CCN1CCN(C(=O)N[C@@H](C(=O)N[C@@H]2C(=O)N3[C@@H]2SC(C)(C)[C@@H]3C(=O)O)c2ccccc2)C(=O)C1=O [Piperacillin]
- Reference Microorganism Diameter [3]: 26.2 mm
- Test Microorganism Demonstrates Resistance? [4]: Yes
- Test Microorganism Diameter [4, 8]: 6.5 mm
- Test Microorganism Demonstrates Resistance? [5]: Yes
- Test Microorganism Diameter [5, 8]: 6.5 mm
- Reference Microorganism Diameter [6]: 25.3 mm

SMILES: CN[C@H](CC(C)C)C(=O)N[C@H]1C(=O)N[C@@H](CC(N)=O)C(=O)N[C@H]2C(=O)N[C@H]3C(=O)N[C@H](C(=O)N[C@H](C(=O)O)c4cc(O)cc(O)c4-c4cc3ccc4O)[C@H](O)c3ccc(c(Cl)c3)Oc3cc2cc(c3O[C@@H]2O[C@H](CO)[C@@H](O)[C@H](O)[C@H]2O[C@H]2C[C@](C)(N)[C@H](O)[C@H](C)O2)Oc2ccc(cc2Cl)[C@H]1O [Vancomycin]
- Reference Microorganism Diameter [1]: 21.2 mm
- Test Microorganism Demonstrates Resistance? [7]: Yes
- Test Microorganism Diameter ([7]; susceptibility ≥17 mm, resistance ≤14 mm (CLSI M100)): 11.3 mm
